According to patent US9302999B2, “Substituted triazoles as herbicides” (E. I. DU PONT DE NEMOURS AND COMPANY, priority 2012, dated 2016):

Tests used:
Format in all cases: in vivo
Settings in all cases: Preemergence, scale 0 to 100
[1] = test system: panicum, fall (fall panicum, Panicum dichotomiflorum); test: Test E pre-/postemergence: panicum, fall
Source text: (§1) Seeds of plant species selected from corn (Zea mays), soybean (Glycine max), velvetleaf (Abutilon theophrasti), lambsquarters (Chenopodium album), poinsettia, wild (wild poinsettia, Euphorbia heterophylla), pigweed, palmer (palmer pigweed, Amaranthus palmeri), waterhemp (common waterhemp, Amaranthus rudis), smartweed (ladysthumb smartweed, Polygonum persicaria), surinam grass (Brachiaria decumbens), crabgrass, large (large crabgrass, Digitaria sanguinalis), crabgrass, Brazil (Brazilian crabgrass, Digitaria horizontalis), panicum, fall (fall panicum, Panicum dichotomiflorum), foxtail, giant (giant foxtail, Setaria faberii), foxtail, green (green foxtail, Setaria viridis), goosegrass (Eleusine indica), johnsongrass (Sorghum halepense), ragweed (common ragweed, Ambrosia elation), barnyardgrass (Echinochloa crus-galli), sandbur (southern sandbur, Cenchrus echinatus), arrowleaf sida (Sida rhombifolia), ryegrass, Italian (Italian ryegrass, Lolium multiflorum), dayflower, (VA) (Virginia dayflower, Commelina virginica), field bindweed (Convolvulus arvensis), cocklebur (common cocklebur, Xanthium strumarium), morningglory (Ipomoea coccinea), nightshade (eastern black nightshade, Solanum ptycanthum), kochia (Kochia scoparia), nutsedge, yellow (yellow nutsedge, Cyperus esculentus) and beggarticks (hairy beggarticks, Bidens pilosa) were planted into a silt loam soil and treated preemergence with test chemicals formulated in a non-phytotoxic solvent mixture which included a surfactant. At the same time, plants selected from these crop and weed species were planted in pots containing a growing medium comprising spaghnum peat moss, vermiculite, wetting agent and starter nutrients and treated with postemergence applications of some of the test chemicals formulated in the same manner. Plants ranged in height from 2 to 18 cm for postemergence treatments (1- to 4-leaf stage).
(§2) Treated plants and controls were maintained in a greenhouse for 14 to 21 days, after which time all species were compared to controls and visually evaluated. Plant response ratings, summarized in Table E, are based on a scale of 0 to 100 where 0 is no effect and 100 is complete control. A dash (-) response means no test result.

[2] = test system: foxtail, green (green foxtail, Setaria viridis); test: Test E pre-/postemergence: foxtail, green
Source text: as §1, §2

[3] = test system: johnsongrass (Sorghum halepense); test: Test E pre-/postemergence: johnsongrass
Source text: as §1, §2

[4] = test system: goosegrass (Eleusine indica); test: Test E pre-/postemergence: goosegrass
Source text: as §1, §2

[5] = test system: nightshade (eastern black nightshade, Solanum ptycanthum); test: Test E pre-/postemergence: nightshade
Source text: as §1, §2

[6] = test system: arrowleaf sida (Sida rhombifolia); test: Test E pre-/postemergence: arrowleaf sida
Source text: as §1, §2

[7] = test system: surinam grass (Brachiaria decumbens); test: Test E pre-/postemergence: surinam grass
Source text: as §1, §2

[8] = test system: morningglory (Ipomoea coccinea); test: Test E pre-/postemergence: morningglory
Source text: as §1, §2

[9] = test system: sandbur (southern sandbur, Cenchrus echinatus); test: Test E pre-/postemergence: sandbur
In short: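 Visual injury scored 0–100 (0 no effect, 100 complete control) against controls after 14 to 21 days in greenhouse. Compounds formulated in surfactant-containing non-phytotoxic solvent, applied pre-emergence to seeded silt loam or post-emergence to 1- to 4-leaf plants in peat-based medium.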

corn (Zea mays) = test: Test E pre-/postemergence: corn
Source text: as §1, §2

[10] = test system: lambsquarters (Chenopodium album); test: Test E pre-/postemergence: lambsquarters
Source text: as §1, §2

COc1nn(-c2ccc(C(F)(F)F)cc2)nc1Cc1ccnc(C(F)(F)F)c1 [Compound 15, 4-[[5-methoxy-2-[4-(trifluoromethyl)phenyl]-2H-1,2,3-triazol-4-yl]methyl]-2-(trifluoromethyl)pyridine]
Plant response rating: Panicum, Fall ([1]; 16 g ai/ha): 98
Plant response rating: Panicum, Fall ([1]; 31 g ai/ha): 98
Plant response rating: Panicum, Fall ([1]; 62 g ai/ha): 100
Plant response rating: Panicum, Fall ([1]; 125 g ai/ha): 100
Plant response rating: Panicum, Fall ([1]; 250 g ai/ha): 100
Plant response rating: Foxtail, Green ([2]; 16 g ai/ha): 20
Plant response rating: Foxtail, Green ([2]; 62 g ai/ha): 90
Plant response rating: Foxtail, Green ([2]; 125 g ai/ha): 100
Plant response rating: Foxtail, Green ([2]; 250 g ai/ha): 100
Plant response rating: Johnsongrass ([3]; 16 g ai/ha): 10
Plant response rating: Johnsongrass ([3]; 31 g ai/ha): 65
Plant response rating: Johnsongrass ([3]; 62 g ai/ha): 65
Plant response rating: Johnsongrass ([3]; 125 g ai/ha): 98
Plant response rating: Johnsongrass ([3]; 250 g ai/ha): 100
Plant response rating: Goosegrass ([4]; 16 g ai/ha): 75
Plant response rating: Goosegrass ([4]; 31 g ai/ha): 100
Plant response rating: Goosegrass ([4]; 62 g ai/ha): 100
Plant response rating: Goosegrass ([4]; 125 g ai/ha): 100
Plant response rating: Goosegrass ([4]; 250 g ai/ha): 100
Plant response rating: Nightshade ([5]; 16 g ai/ha): 5
Plant response rating: Nightshade ([5]; 31 g ai/ha): 35
Plant response rating: Nightshade ([5]; 62 g ai/ha): 98
Plant response rating: Nightshade ([5]; 125 g ai/ha): 98
Plant response rating: Nightshade ([5]; 250 g ai/ha): 100
Plant response rating: Arrowleaf Sida ([6]; 31 g ai/ha): 30
Plant response rating: Arrowleaf Sida ([6]; 62 g ai/ha): 40
Plant response rating: Arrowleaf Sida ([6]; 125 g ai/ha): 50
Plant response rating: Arrowleaf Sida ([6]; 250 g ai/ha): 60
Plant response rating: Surinam Grass ([7]; 16 g ai/ha): 5
Plant response rating: Surinam Grass ([7]; 31 g ai/ha): 50
Plant response rating: Surinam Grass ([7]; 62 g ai/ha): 75
Plant response rating: Surinam Grass ([7]; 125 g ai/ha): 98
Plant response rating: Surinam Grass ([7]; 250 g ai/ha): 100
Plant response rating: Morningglory ([8]; 16 g ai/ha): 10
Plant response rating: Morningglory ([8]; 31 g ai/ha): 50
Plant response rating: Morningglory ([8]; 62 g ai/ha): 50
Plant response rating: Morningglory ([8]; 125 g ai/ha): 65
Plant response rating: Morningglory ([8]; 250 g ai/ha): 65
Plant response rating: Sandbur ([9]; 16 g ai/ha): 5
Plant response rating: Sandbur ([9]; 31 g ai/ha): 25
Plant response rating: Sandbur ([9]; 62 g ai/ha): 50
Plant response rating: Sandbur ([9]; 125 g ai/ha): 90
Plant response rating: Sandbur ([9]; 250 g ai/ha): 100
Plant response rating: Corn (corn (Zea mays); 16 g ai/ha): 0
Plant response rating: Corn (corn (Zea mays); 31 g ai/ha): 0
Plant response rating: Corn (corn (Zea mays); 62 g ai/ha): 0
Plant response rating: Corn (corn (Zea mays); 125 g ai/ha): 5
Plant response rating: Corn (corn (Zea mays); 250 g ai/ha): 10
Plant response rating: Lambsquarters ([10]; 16 g ai/ha): 90
Plant response rating: Lambsquarters ([10]; 31 g ai/ha): 100
Plant response rating: Lambsquarters ([10]; 62 g ai/ha): 100
Plant response rating: Lambsquarters ([10]; 125 g ai/ha): 100
Plant response rating: Lambsquarters ([10]; 250 g ai/ha): 100
